{"source": "PubChem BioAssay (NCI)", "assay_in_all_cases": "inhibition of tumour cell growth, NCI panel, 48 h", "key": {"[1]": {"system": "786-0 renal"}, "[2]": {"system": "A549 NSCLC"}, "[3]": {"system": "ACHN renal"}, "[4]": {"system": "CAKI-1 renal"}, "[5]": {"system": "COLO 205 colon"}, "[6]": {"system": "DLD-1 colon"}, "[7]": {"system": "DMS 273 small cell lung"}, "[8]": {"system": "HCC-2998 colon"}, "[9]": {"system": "HCT-116 colon"}, "[10]": {"system": "HCT-15 colon"}, "[11]": {"system": "HL-60(TB) leukemia"}, "[12]": {"system": "HOP-62 NSCLC"}, "[13]": {"system": "HOP-92 NSCLC"}, "[14]": {"system": "IGROV1 ovarian"}, "[15]": {"system": "K-562 leukemia"}, "[16]": {"system": "KM12 colon"}, "[17]": {"system": "KM20L2 colon"}, "[18]": {"system": "LOX IMVI melanoma"}, "[19]": {"system": "LXFL 529 NSCLC"}, "[20]": {"system": "M14 melanoma"}, "[21]": {"system": "M19-MEL melanoma"}, "[22]": {"system": "MALME-3M melanoma"}, "[23]": {"system": "MOLT-4 leukemia"}, "[24]": {"system": "NCI-H226 lung"}, "[25]": {"system": "NCI-H23 lung"}, "[26]": {"system": "NCI-H460 lung"}, "[27]": {"system": "NCI-H522 lung"}, "[28]": {"system": "OVCAR-3 ovarian"}, "[29]": {"system": "OVCAR-4 ovarian"}, "[30]": {"system": "OVCAR-5 ovarian"}, "[31]": {"system": "OVCAR-8 ovarian"}, "[32]": {"system": "RPMI-8226 leukemia"}, "[33]": {"system": "SF-268 CNS"}, "[34]": {"system": "SF-295 CNS"}, "[35]": {"system": "SF-539 CNS"}, "[36]": {"system": "SK-MEL-2 melanoma"}, "[37]": {"system": "SK-MEL-28 melanoma"}, "[38]": {"system": "SK-OV-3 ovarian"}, "[39]": {"system": "SN12C renal"}, "[40]": {"system": "SNB-19 CNS"}, "[41]": {"system": "SNB-75 CNS"}, "[42]": {"system": "SNB-78 CNS"}, "[43]": {"system": "SR leukemia"}, "[44]": {"system": "SW-620 colon"}, "[45]": {"system": "TK-10 renal"}, "[46]": {"system": "U251 CNS"}, "[47]": {"system": "UACC-257 melanoma"}, "[48]": {"system": "UACC-62 melanoma"}, "[49]": {"system": "UO-31 renal"}, "[50]": {"system": "CCRF-CEM leukemia"}, "[51]": {"system": "DMS 114 small cell lung"}, "[52]": {"system": "HOP-18 NSCLC"}, "[53]": {"system": "HT29 colon"}, "[54]": {"system": "RXF 393 renal"}, "[55]": {"system": "SK-MEL-5 melanoma"}}, "note": "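48-hour exposure; five concentrations; linearly interpolated endpoints. TGI denotes the concentration required for complete inhibition of growth.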", "data": [{"molecule": "Cc1nnc2n1N=C(c1ccc(-c3ccc([N+](=O)[O-])cc3)o1)CS2", "values": [{"measurement": "TGI", "setting": "[1]", "value": "> 100", "unit": "µM"}, {"measurement": "TGI", "setting": "[2]", "value": "> 100", "unit": "µM"}, {"measurement": "TGI", "setting": "[3]", "value": "> 100", "unit": "µM"}, {"measurement": "TGI", "setting": "[4]", "value": "> 100", "unit": "µM"}, {"measurement": "TGI", "setting": "[5]", "value": "> 100", "unit": "µM"}, {"measurement": "TGI", "setting": "[6]", "value": "> 100", "unit": "µM"}, {"measurement": "TGI", "setting": "[7]", "value": "> 100", "unit": "µM"}, {"measurement": "TGI", "setting": "[8]", "value": "> 100", "unit": "µM"}, {"measurement": "TGI", "setting": "[9]", "value": "> 100", "unit": "µM"}, {"measurement": "TGI", "setting": "[10]", "value": "> 100", "unit": "µM"}, {"measurement": "TGI", "setting": "[11]", "value": "> 100", "unit": "µM"}, {"measurement": "TGI", "setting": "[12]", "value": "> 100", "unit": "µM"}, {"measurement": "TGI", "setting": "[13]", "value": "> 100", "unit": "µM"}, {"measurement": "TGI", "setting": "[14]", "value": "> 100", "unit": "µM"}, {"measurement": "TGI", "setting": "[15]", "value": "> 100", "unit": "µM"}, {"measurement": "TGI", "setting": "[16]", "value": "> 100", "unit": "µM"}, {"measurement": "TGI", "setting": "[17]", "value": "> 100", "unit": "µM"}, {"measurement": "TGI", "setting": "[18]", "value": "> 100", "unit": "µM"}, {"measurement": "TGI", "setting": "[19]", "value": "> 100", "unit": "µM"}, {"measurement": "TGI", "setting": "[20]", "value": "> 100", "unit": "µM"}, {"measurement": "TGI", "setting": "[21]", "value": "> 100", "unit": "µM"}, {"measurement": "TGI", "setting": "[22]", "value": "> 100", "unit": "µM"}, {"measurement": "TGI", "setting": "[23]", "value": "> 100", "unit": "µM"}, {"measurement": "TGI", "setting": "[24]", "value": "> 100", "unit": "µM"}, {"measurement": "TGI", "setting": "[25]", "value": "> 100", "unit": "µM"}, {"measurement": "TGI", "setting": "[26]", "value": "> 100", "unit": "µM"}, {"measurement": "TGI", "setting": "[27]", "value": "> 100", "unit": "µM"}, {"measurement": "TGI", "setting": "[28]", "value": "> 100", "unit": "µM"}, {"measurement": "TGI", "setting": "[29]", "value": "> 100", "unit": "µM"}, {"measurement": "TGI", "setting": "[30]", "value": "> 100", "unit": "µM"}, {"measurement": "TGI", "setting": "[31]", "value": "> 100", "unit": "µM"}, {"measurement": "TGI", "setting": "[32]", "value": "> 100", "unit": "µM"}, {"measurement": "TGI", "setting": "[33]", "value": "> 100", "unit": "µM"}, {"measurement": "TGI", "setting": "[34]", "value": "> 100", "unit": "µM"}, {"measurement": "TGI", "setting": "[35]", "value": "> 100", "unit": "µM"}, {"measurement": "TGI", "setting": "[36]", "value": "> 100", "unit": "µM"}, {"measurement": "TGI", "setting": "[37]", "value": "> 100", "unit": "µM"}, {"measurement": "TGI", "setting": "[38]", "value": "> 100", "unit": "µM"}, {"measurement": "TGI", "setting": "[39]", "value": "> 100", "unit": "µM"}, {"measurement": "TGI", "setting": "[40]", "value": "> 100", "unit": "µM"}, {"measurement": "TGI", "setting": "[41]", "value": "> 100", "unit": "µM"}, {"measurement": "TGI", "setting": "[42]", "value": "> 100", "unit": "µM"}, {"measurement": "TGI", "setting": "[43]", "value": "> 100", "unit": "µM"}, {"measurement": "TGI", "setting": "[44]", "value": "> 100", "unit": "µM"}, {"measurement": "TGI", "setting": "[45]", "value": "> 100", "unit": "µM"}, {"measurement": "TGI", "setting": "[46]", "value": "> 100", "unit": "µM"}, {"measurement": "TGI", "setting": "[47]", "value": "> 100", "unit": "µM"}, {"measurement": "TGI", "setting": "[48]", "value": "> 100", "unit": "µM"}, {"measurement": "TGI", "setting": "[49]", "value": "> 100", "unit": "µM"}]}, {"molecule": "O=[N+]([O-])c1cc(Cl)ccc1S(=O)(=O)c1ccc(Cl)cc1[N+](=O)[O-]", "values": [{"measurement": "TGI", "setting": "[1]", "value": 28.9, "unit": "µM"}, {"measurement": "TGI", "setting": "[2]", "value": 70, "unit": "µM"}, {"measurement": "TGI", "setting": "[3]", "value": 29.7, "unit": "µM"}, {"measurement": "TGI", "setting": "[4]", "value": 33.9, "unit": "µM"}, {"measurement": "TGI", "setting": "[50]", "value": "> 100", "unit": "µM"}, {"measurement": "TGI", "setting": "[5]", "value": 30.7, "unit": "µM"}, {"measurement": "TGI", "setting": "[6]", "value": 29.4, "unit": "µM"}, {"measurement": "TGI", "setting": "[51]", "value": 23.9, "unit": "µM"}, {"measurement": "TGI", "setting": "[7]", "value": 27.2, "unit": "µM"}, {"measurement": "TGI", "setting": "[9]", "value": 29.2, "unit": "µM"}, {"measurement": "TGI", "setting": "[10]", "value": 33, "unit": "µM"}, {"measurement": "TGI", "setting": "[11]", "value": 58, "unit": "µM"}, {"measurement": "TGI", "setting": "[52]", "value": 30.4, "unit": "µM"}, {"measurement": "TGI", "setting": "[12]", "value": 35.9, "unit": "µM"}, {"measurement": "TGI", "setting": "[13]", "value": 32.6, "unit": "µM"}, {"measurement": "TGI", "setting": "[53]", "value": 30.9, "unit": "µM"}, {"measurement": "TGI", "setting": "[14]", "value": 29.4, "unit": "µM"}, {"measurement": "TGI", "setting": "[15]", "value": "> 100", "unit": "µM"}, {"measurement": "TGI", "setting": "[16]", "value": 27.7, "unit": "µM"}, {"measurement": "TGI", "setting": "[17]", "value": 31.3, "unit": "µM"}, {"measurement": "TGI", "setting": "[18]", "value": 32.5, "unit": "µM"}, {"measurement": "TGI", "setting": "[19]", "value": 27.2, "unit": "µM"}, {"measurement": "TGI", "setting": "[20]", "value": 30.4, "unit": "µM"}, {"measurement": "TGI", "setting": "[21]", "value": 28.7, "unit": "µM"}, {"measurement": "TGI", "setting": "[22]", "value": 26.6, "unit": "µM"}, {"measurement": "TGI", "setting": "[23]", "value": 84.4, "unit": "µM"}, {"measurement": "TGI", "setting": "[24]", "value": 25.1, "unit": "µM"}, {"measurement": "TGI", "setting": "[25]", "value": 29.2, "unit": "µM"}, {"measurement": "TGI", "setting": "[26]", "value": 31.5, "unit": "µM"}, {"measurement": "TGI", "setting": "[27]", "value": 29.9, "unit": "µM"}, {"measurement": "TGI", "setting": "[28]", "value": 31.1, "unit": "µM"}, {"measurement": "TGI", "setting": "[29]", "value": 37.2, "unit": "µM"}, {"measurement": "TGI", "setting": "[30]", "value": 34, "unit": "µM"}, {"measurement": "TGI", "setting": "[31]", "value": 29.5, "unit": "µM"}, {"measurement": "TGI", "setting": "[32]", "value": "> 100", "unit": "µM"}, {"measurement": "TGI", "setting": "[54]", "value": 29.5, "unit": "µM"}, {"measurement": "TGI", "setting": "[33]", "value": 29.2, "unit": "µM"}, {"measurement": "TGI", "setting": "[34]", "value": 29, "unit": "µM"}, {"measurement": "TGI", "setting": "[35]", "value": 32.7, "unit": "µM"}, {"measurement": "TGI", "setting": "[36]", "value": 33, "unit": "µM"}, {"measurement": "TGI", "setting": "[37]", "value": 32, "unit": "µM"}, {"measurement": "TGI", "setting": "[55]", "value": 27.7, "unit": "µM"}, {"measurement": "TGI", "setting": "[38]", "value": 29.4, "unit": "µM"}, {"measurement": "TGI", "setting": "[39]", "value": 29.1, "unit": "µM"}, {"measurement": "TGI", "setting": "[40]", "value": 31.4, "unit": "µM"}, {"measurement": "TGI", "setting": "[41]", "value": 29.7, "unit": "µM"}, {"measurement": "TGI", "setting": "[42]", "value": 34.7, "unit": "µM"}, {"measurement": "TGI", "setting": "[43]", "value": 40.3, "unit": "µM"}, {"measurement": "TGI", "setting": "[44]", "value": 32.6, "unit": "µM"}, {"measurement": "TGI", "setting": "[45]", "value": 31.5, "unit": "µM"}, {"measurement": "TGI", "setting": "[46]", "value": 34.5, "unit": "µM"}, {"measurement": "TGI", "setting": "[47]", "value": 26.7, "unit": "µM"}, {"measurement": "TGI", "setting": "[48]", "value": 31, "unit": "µM"}, {"measurement": "TGI", "setting": "[49]", "value": 30.9, "unit": "µM"}]}]}
